From patent US9499547B2 (BAYER INTELLECTUAL PROPERTY GMBH, priority 2011, dated 2016)

Tests used:
human full-length MKNK1 [1] = biological target: T1, human full-length MKNK1 (Homo sapiens (Human), UniProt Q9BUB5, T344D); assay: MKNK1 kinase assay (MKNK1 TR-FRET assay); format: biochemical; conditions: 10 μM ATP final conc.; 15 min preincubation with enzyme
Method: MKNK1-inhibitory activity of compounds of the present invention was quantified employing the MKNK1 TR-FRET assay as described in the following paragraphs.
As substrate for the kinase reaction the biotinylated peptide biotin-Ahx-[…] (C-terminus in amide form) was used which can be purchased e.g. form the company Biosyntan (Berlin-Buch, Germany).
(§1) For the assay 50 nL of a 100 fold concentrated solution of the test compound in DMSO was pipetted into a black low volume 384 well microtiter plate (Greiner Bio-One, Frickenhausen, Germany), 2 μL of a solution of MKNK1 in aqueous assay buffer [50 mM HEPES pH 7.5, 5 mM magnesium chloride, 1.0 mM dithiothreitol, 0.005% (v/v) Nonidet-P40 (Sigma)] was added and the mixture was incubated for 15 min at 22° C. to allow pre-binding of the test compounds to the enzyme before the start of the kinase reaction. Then the kinase reaction was started by the addition of 3 μL of a solution of adenosine-tri-phosphate (ATP, 16.7 μM=>final conc. in the 5 μL assay volume is 10 μM) and substrate (0.1 μM=>final conc. in the 5 μL assay volume is 0.06 μM) in assay buffer and the resulting mixture was incubated for a reaction time of 45 min at 22° C. The concentration of MKNK1 was adjusted depending of the activity of the enzyme lot and was chosen appropriate to have the assay in the linear range, typical concentrations were in the range of 0.05 μg/ml. The reaction was stopped by the addition of 5 μL of a solution of TR-FRET detection reagents (5 nM streptavidine-XL665 [Cisbio Bioassays, Codolet, France] and 1 nM anti-ribosomal protein S6 (pSer236)-antibody from Invitrogen [#44921G] and 1 nM LANCE EU-W1024 labeled ProteinG [Perkin-Elmer, product no. AD0071]) in an aqueous EDTA-solution (100 mM EDTA, 0.1% (w/v) bovine serum albumin in 50 mM HEPES pH 7.5).
(§2) The resulting mixture was incubated for 1 h at 22° C. to allow the formation of complex between the phosphorylated biotinylated peptide and the detection reagents. Subsequently the amount of phosphorylated substrate was evaluated by measurement of the resonance energy transfer from the Eu-chelate to the streptavidine-XL. Therefore, the fluorescence emissions at 620 nm and 665 nm after excitation at 350 nm were measured in a TR-FRET reader, e.g. a Rubystar (BMG Labtechnologies, Offenburg, Germany) or a Viewlux (Perkin-Elmer). The ratio of the emissions at 665 nm and at […] was taken as the measure for the amount of phosphorylated substrate. The data were normalised (enzyme reaction without inhibitor=0% inhibition, all other assay components but no enzyme=100% inhibition).

human full-length MKNK1 [2] = biological target: T1, human full-length MKNK1; assay: MKNK1 kinase high ATP assay (TR-FRET-based); format: biochemical; conditions: 2 mM ATP final conc.; 15 min preincubation with enzyme
Method: MKNK1 Kinase High ATP Assay
MKNK1-inhibitory activity at high ATP of compounds of the present invention after their preincubation with MKNK1 was quantified employing the TR-FRET-based MKNK1 high ATP assay as described in the following paragraphs.
As substrate for the kinase reaction the biotinylated peptide biotin-Ahx-[…] (C-terminus in amide form) was used, which can be purchased e.g. from the company Biosyntan (Berlin-Buch, Germany).
as §1, with “3.3 mM=>final” for “16.7 μM=>final”, “2 mM)” for “10 μM)”, “30” for “45”, “0.003 μg/mL.” for “0.05 μg/ml.”
as §2

T1 sequence (Q9BUB5 other isoform, or with tags, fused parts or gaps T344D): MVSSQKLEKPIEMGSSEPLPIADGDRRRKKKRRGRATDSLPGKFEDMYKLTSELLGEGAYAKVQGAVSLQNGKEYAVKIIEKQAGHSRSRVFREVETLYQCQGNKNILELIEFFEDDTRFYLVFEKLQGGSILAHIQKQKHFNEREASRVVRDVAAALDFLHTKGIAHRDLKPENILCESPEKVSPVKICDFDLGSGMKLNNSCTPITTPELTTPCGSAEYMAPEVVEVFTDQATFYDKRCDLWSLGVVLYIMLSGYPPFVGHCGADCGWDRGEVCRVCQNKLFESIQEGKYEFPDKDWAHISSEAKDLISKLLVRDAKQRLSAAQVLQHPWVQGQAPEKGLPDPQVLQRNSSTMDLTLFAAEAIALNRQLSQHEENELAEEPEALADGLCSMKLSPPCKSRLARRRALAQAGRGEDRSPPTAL

Row | Structure (SMILES) | IC50 (human full-length MKNK1 [1]) [nM] | IC50 (human full-length MKNK1 [2]) [nM]
1 | C[C@H](N)COc1ccc2ncc(-c3cc4c(F)cccc4o3)n2n1 [Example 45, (2S)-1-{[3-(4-Fluoro-1-benzofuran-2-yl)imidazo[1,2-b]pyridazin-6-yl]oxy}-propan-2-amine] | 17 | 71
2 | N[C@H](COc1ccc2ncc(-c3cc4c(F)cccc4o3)n2n1)c1ccccc1 [Example 46, (1S)-2-{[3-(4-Fluoro-1-benzofuran-2-yl)imidazo[1,2-b]pyridazin-6-yl]oxy}-1-phenylethanamine] | 36 | 67
3 | C[C@H](CN)Oc1ccc2ncc(-c3cc4cccc(F)c4o3)n2n1 [Example 48, (2R)-2-{[3-(7-Fluoro-1-benzofuran-2-yl)imidazo[1,2-b]pyridazin-6-yl]oxy}-propan-1-amine] | 71 | 115
4 | Cc1ccc2oc(-c3cnc4ccc(O[C@H](C)CN)nn34)cc2c1 [Example 49, (2R)-2-{[3-(5-Methyl-1-benzofuran-2-yl)imidazo[1,2-b]pyridazin-6-yl]oxy}-propan-1-amine] | 88 | 154
5 | N[C@H](COc1ccc2ncc(-c3cc4ccccc4o3)n2n1)Cc1ccccc1 [Example 50, (2S)-1-{[3-(1-Benzofuran-2-yl)imidazo[1,2-b]pyridazin-6-yl]oxy}-3-phenylpropan-2-amine] | 27 | 54
6 | NC1(COc2ccc3ncc(-c4cc5ccccc5o4)n3n2)CC1 [Example 51, 1-({[3-(1-Benzofuran-2-yl)imidazo[1,2-b]pyridazin-6-yl]oxy}methyl)cyclopropanamine] | 29 | 74
7 | NCC(COc1ccc2ncc(-c3cc4ccccc4o3)n2n1)c1ccccc1 (centres unmarked) [Example 52, 3-{[3-(1-Benzofuran-2-yl)imidazo[1,2-b]pyridazin-6-yl]oxy}-2-phenylpropan-1-amine] | 17 | 30
